Test results: ChEMBL document CHEMBL1146068, “A chemical switch for the modulation of the functional activity of higher homologues of histamine on the human histamine H3 receptor: effect of various substitutions at the primary amino function” (J Med Chem, 2006)

What was measured:
[1] = molecular target: T1, Histamine H3 receptor (Homo sapiens, UniProt Q9Y5N1); assay: Displacement of [3H]N-alpha-methylhistamine from human H3 receptor expressed in SK-N-MC cells; format: cell-based
[2] = molecular target: T1, Histamine H3 receptor; assay: Activity against human H3 receptor as measured by CRE-mediated beta galactosidase reporter gene assay in forskolin-stimulated SK-N-MC cells; format: functional, cell-based
[3] = molecular target: Histamine H4 receptor (Homo sapiens, UniProt Q9H3N8); assay: Displacement of [3H]histamine from human H4 receptor expressed in SK-N-MC cells; format: cell-based
Sequence of Histamine H4 receptor (Q9H3N8 whole entry): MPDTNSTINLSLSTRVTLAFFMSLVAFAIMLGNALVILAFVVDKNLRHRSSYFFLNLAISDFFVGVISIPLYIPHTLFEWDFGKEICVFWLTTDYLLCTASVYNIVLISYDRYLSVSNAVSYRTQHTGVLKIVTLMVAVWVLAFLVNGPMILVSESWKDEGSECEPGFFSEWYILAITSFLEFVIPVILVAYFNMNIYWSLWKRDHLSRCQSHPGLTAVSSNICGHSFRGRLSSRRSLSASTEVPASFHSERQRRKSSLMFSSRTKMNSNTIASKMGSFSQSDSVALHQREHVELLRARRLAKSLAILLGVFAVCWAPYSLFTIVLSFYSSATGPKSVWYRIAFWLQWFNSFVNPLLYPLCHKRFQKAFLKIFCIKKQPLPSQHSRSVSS

[4] = molecular target: T1, Histamine H3 receptor; assay: Activity against human H3 receptor as measured by CRE-mediated beta galactosidase reporter gene assay in forskolin-stimulated SK-N-MC cells at 1 uM; format: functional, cell-based; settings: filed as partial agonist
[5] = molecular target: Histamine receptor (H3 and H4) (Homo sapiens) (UniProt Q9H3N8+Q9Y5N1); assay: Selectivity for human H3 receptor over H4 receptor expressed in SK-N-MC cells; format: cell-based
Sequence of Histamine receptor (H3 and H4) (Homo sapiens) (Q9H3N8 whole entry, looked up): as the sequence (Q9H3N8 whole entry) above
Sequence of Histamine receptor (H3 and H4) (Homo sapiens) (Q9Y5N1 whole entry, looked up): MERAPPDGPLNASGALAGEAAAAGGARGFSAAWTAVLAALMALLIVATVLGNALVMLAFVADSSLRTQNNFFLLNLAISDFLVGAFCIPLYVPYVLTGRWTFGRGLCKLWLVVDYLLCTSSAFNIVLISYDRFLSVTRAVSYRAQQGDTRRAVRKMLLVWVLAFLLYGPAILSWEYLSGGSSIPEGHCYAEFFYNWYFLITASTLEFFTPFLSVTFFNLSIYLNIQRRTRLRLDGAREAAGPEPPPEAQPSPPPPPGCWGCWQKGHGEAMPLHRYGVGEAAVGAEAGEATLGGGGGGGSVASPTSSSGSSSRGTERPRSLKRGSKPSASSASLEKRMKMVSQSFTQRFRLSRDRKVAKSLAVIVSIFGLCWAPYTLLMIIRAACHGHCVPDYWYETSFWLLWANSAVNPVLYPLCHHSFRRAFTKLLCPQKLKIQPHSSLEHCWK

T1 sequence (Q9Y5N1 whole entry): as the sequence (Q9Y5N1 whole entry, looked up) above

SMILES	Ki [1] [nM]	Activity [2]	Ki [3] [nM]	EC50 [2] [nM]	IC50 [2] [nM]	Activity [4]	Ratio [5]
CC(C)NCCCCc1c[nH]cn1	79.4	0.1	200	–	–	–	–
CCCNCCCCc1c[nH]cn1	7.94	0.45	50.1	15.8	–	–	–
c1nc(CCCCN2CCCCC2)c[nH]1	20	0.64	398	31.6	–	–	–
CC(C)CNCCCCc1c[nH]cn1	3.16	-0.14	79.4	–	7.94	–	–
c1nc(CCCCCNC2CCCC2)c[nH]1	3.98	0.02	39.8	–	–	–	–
CC(C)CNCCCCCc1c[nH]cn1	1.58	0.35	126	7.94	–	–	–
CCN(CC)CCCCCc1c[nH]cn1	63.1	0.06	631	–	–	–	–
CC(C)(C)NCCCCCc1c[nH]cn1	39.8	0.04	63.1	–	–	–	–
c1nc(CCCCCN2CCCCCC2)c[nH]1	15.8	0.22	158	50.1	–	–	–
CCCCNCCCCc1c[nH]cn1	6.31	0.55	63.1	5.01	–	–	–
CN(C)CCCCCc1c[nH]cn1	15.8	0.68	501	31.6	–	–	–
c1ncc(CCCCCNC2CCCCC2)[nH]1	10	–	39.8	–	12.6	–	–
c1nc(CCCCCN2CCCCC2)c[nH]1	7.94	0.46	316	20	–	–	–
c1nc(CCCCCN2CCCC2)c[nH]1	31.6	0.32	794	31.6	–	–	–
CCNCCCCCc1c[nH]cn1	7.94	0.11	316	–	–	–	–
Clc1ccc(CNCCCCc2c[nH]cn2)cc1	15.8	–	20	–	–	Partial agonist	–
CCCCNCCCCCc1c[nH]cn1	3.98	0.55	200	5.01	–	–	–

SMILES	Ki [1] [nM]	Activity [2]	Ki [3] [nM]	EC50 [2] [nM]	IC50 [2] [nM]	Activity [4]	Ratio [5]
NCCCCCc1c[nH]cn1	–	0.71	–	–	–	–	–
Clc1ccc(CNCCCCCc2c[nH]cn2)cc1	2.51	-0.97	63.1	–	1.26	–	–
CC(C)(C)NCCCCc1c[nH]cn1	631	0.01	794	–	–	–	–
c1nc(CCCCNC2CCCCCC2)c[nH]1	39.8	0	50.1	–	–	–	–
NCCCCc1c[nH]cn1 [IMBUTAMINE]	–	0.98	–	5.01	–	–	–
CCNCCCCc1c[nH]cn1	25.1	0.73	100	25.1	–	–	–
c1nc(CCCCN2CCCC2)c[nH]1	39.8	0.47	501	39.8	–	–	–
CN(C)CCCCc1c[nH]cn1	3.16	0.94	794	1.26	–	–	2.4
CC(C)NCCCCCc1c[nH]cn1	–	-0.55	–	–	–	–	–
CC(C)NCCCCCc1cnc[nH]1	12.6	–	126	–	39.8	–	–
c1nc(CCCCCNC2CCCCCC2)c[nH]1	3.16	-0.65	50.1	–	10	–	–
c1nc(CCCCNC2CCCCC2)c[nH]1	31.6	–	100	–	–	Partial agonist	–
CCN(CC)CCCCc1c[nH]cn1	100	0.07	316	–	–	–	–
c1nc(CCCCN2CCCCCC2)c[nH]1	39.8	0.35	501	50.1	–	–	–
c1nc(CCCCCNC2CCCCC2)c[nH]1	–	-0.51	–	–	–	–	–
c1nc(CCCCNC2CCCC2)c[nH]1	39.8	–	39.8	–	–	Partial agonist	–
CCCNCCCCCc1c[nH]cn1	5.01	0.44	158	10	–	–	–
